Each structure is given as a SMILES string.

The assay deals with T1, recombinant soluble human CD73 (Homo sapiens, UniProt P21589, T376A).
T1 construct: mature human CD73 (residues 27-549) fused to 6×His-tag at the C-terminus; 6xHis (C); made in house; host or cells: Spodoptera frugiperda Sf9 insect cells (baculovirus, pAcGP67B vector)
T1 sequence (P21589 27-549 T376A): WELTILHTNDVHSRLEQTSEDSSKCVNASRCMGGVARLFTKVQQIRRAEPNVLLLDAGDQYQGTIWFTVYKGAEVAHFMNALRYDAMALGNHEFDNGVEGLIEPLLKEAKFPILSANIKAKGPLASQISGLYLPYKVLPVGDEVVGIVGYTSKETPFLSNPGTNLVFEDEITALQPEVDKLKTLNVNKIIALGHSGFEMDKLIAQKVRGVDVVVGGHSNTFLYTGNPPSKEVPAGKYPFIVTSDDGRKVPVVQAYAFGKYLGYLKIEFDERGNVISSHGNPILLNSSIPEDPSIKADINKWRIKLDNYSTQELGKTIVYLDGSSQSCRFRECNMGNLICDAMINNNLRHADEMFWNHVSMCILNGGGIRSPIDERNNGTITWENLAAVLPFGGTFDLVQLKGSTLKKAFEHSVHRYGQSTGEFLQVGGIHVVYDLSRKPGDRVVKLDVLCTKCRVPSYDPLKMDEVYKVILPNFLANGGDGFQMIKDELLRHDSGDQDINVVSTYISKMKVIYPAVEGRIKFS
Description: CD73 enzyme inhibition assay with [2,8-3H]AMP, soluble human CD73. The assay is classed as biochemical. Conditions: [2,8-3H]AMP (5 μM) as substrate; Ki from IC50 by Cheng-Prusoff; read-out: Human soluble CD73 Ki ± SEM. As for the experimental part: Compound 2b, its precursor 1, and 20 were investigated for their CD73-inhibitory potency using tritium-labeled AMP as a substrate.^20 After incubation with CD73, non-hydrolyzed substrate and inorganic phosphate were precipitated using a solution of lanthanum chloride, and the precipitate was separated from the solution containing the reaction product [2,8-^3H]adenosine by filtration through GF/B glass fiber filters (WhatmanTM GE Healthcare, Chicago, IL, USA) using a cell harvester (M-48, Brandel, Gaitherburg, MD, USA). The filtrates (ca. 1.8 mL each) were transferred to scintillation vials, scintillation cocktail ULTIMA Gold XR (PerkinElmer, Waltham, MA, USA) was added (5 mL), and the radioactivity esd quantified by scintillation counting. CD73 preparations were (1) recombinant soluble human CD73,^13 (2) recombinant soluble rat CD73,^21 both expressed in Spodoptera frugiperda 9 (Sf) cells, (3) membrane preparations of MDA-MB-231 cells,^16 a human triple-negative breast cancer cell line with high expression of CD73,^18 and (4) membrane preparations of the 4T1.2 cell line, a mouse CD73-expressing breast cancer cell line.^22 The potency of the compounds was determined by measurements of full concentration-inhibition curves. K values were calcuated from the obtained IC50 values employing the Cheng-Prusoff equation.^23
Human soluble CD73 was expressed in Spodoptera frugiperda (Sf9) insect cells and purified as previously described.^16 The cDNA encoding for the mature human CD73 (residues 27-549) fused to 6×His-tag at the C-terminus (Genbank accession no. NM_002526) corresponding to the natural variant T376A (P21589/VAR_022091, UniProtKB/Swiss-Prot) was ligated into the pAcGP67B vector. For transfection, 1 μl of the recombinant vector (1000 ng/μl) mixed with 2.5 μl of baculovirus genomic DNA ProEasy™ (AB vector, CA, USA) was used to transfect Sf9 cells grown in Insect-XPRESS™ medium (#BE12-7300, Lonza, Switzerland) supplemented with 10 mg/l gentamicin. […]

By Ki is commonly meant a dissociation constant, usually derived from enzyme kinetics or from competition with a known ligand. For `CCCN(Cc1ccc(-c2cn(CCF)nn2)cc1)c1nc(Cl)nc2c1ncn2[C@@H]1O[C@H](COP(=O)(O)CP(=O)(O)O)C(O)C1O` (some centres unmarked) [Compound 2], the inhibition constant Ki worked out at 1.02 ± 0.11 nM.
The value for `O=C(NCCCCCCNC(=O)c1ccc2c(c1)C1(OC2=O)c2ccc(O)cc2Oc2cc(O)ccc21)c1ccc(CNc2nc(Cl)nc3c2ncn3[C@@H]2O[C@H](COP(=O)(O)CP(=O)(O)O)[C@@H](O)[C@H]2O)cc1` [Compound 20, (((((2R,3S,4R,5R)-5-(2-chloro-6-((4-((6-(3′,6′-dihydroxy-3-oxo-3H-spiro[isobenzofuran-1,9′-xanthene]-6-carboxamido)-hexyl)carbamoyl)benzyl)amino)-9H-purin-9-yl)-3,4-dihydroxytetrahydrofuran-2-yl)methoxy)(hydroxy)phosphoryl)methyl)phosphonic acid] was 5.96 ± 0.85 nM.

The values above are taken from patent publication US20250382322A1, “DIAGNOSTICS FOR DETECTING ECTO-5'-NUCLEOTIDASE (CD73)” (EBERHARD KARLS UNIVERSITÄT TÜBINGEN, priority 2022, published 2025).
